Data on eight compounds can be found in patent US20170307590A1, “INHIBITORS OF MALARIAL AND HUMAN GLUCOSE TRANSPORTERS AND METHODS FOR IDENTIFYING THE INHIBITORS” (Washington University in St. Louis, priority 2016, published 2017).

The target in test [1] is T1, PfHT (Plasmodium falciparum, UniProt O97467).
T1 construct: endogenous in cells; host or cells: P. falciparum 3D7 parasites freed from human erythrocytes
T1 sequence (O97467 1-504): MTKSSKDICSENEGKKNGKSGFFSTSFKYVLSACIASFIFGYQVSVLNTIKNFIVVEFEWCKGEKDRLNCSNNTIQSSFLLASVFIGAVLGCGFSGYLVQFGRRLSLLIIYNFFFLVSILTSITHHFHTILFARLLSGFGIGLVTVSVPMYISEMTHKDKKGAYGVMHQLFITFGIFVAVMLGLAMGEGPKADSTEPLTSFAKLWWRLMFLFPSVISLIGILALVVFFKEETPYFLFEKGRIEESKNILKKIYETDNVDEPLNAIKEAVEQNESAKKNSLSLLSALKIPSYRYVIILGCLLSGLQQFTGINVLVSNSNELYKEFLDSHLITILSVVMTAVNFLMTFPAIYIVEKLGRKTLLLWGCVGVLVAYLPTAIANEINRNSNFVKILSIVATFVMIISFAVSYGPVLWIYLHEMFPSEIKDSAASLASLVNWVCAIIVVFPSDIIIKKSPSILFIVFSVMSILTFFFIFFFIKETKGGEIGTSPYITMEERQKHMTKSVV
As to the kind of experiment: Heterologous FRET glucose sensor screening assay in PfHT-FLIP HEK293 cells. Type of test: cell-based. The settings on record: for inhibition at 10 µM: HEK293, FRET ratio, vehicle 100%, 200 μM CB 0%. The text has this: HEK293 cells were transfected with pcDNA3.1 FLII12Pglu-700uDelta6 (Addgene, Cambridge, Mass.), containing the FRET glucose sensor (HEK293-FLIP) using Optifect Reagent (Life Technologies, Waltham, Mass.) according to manufacturer's specifications. Cells that stably integrated the gene were selected using G418 (Sigma Aldrich, St. Louis, Mo.) and highest expressers were identified using Fluorescence Activated Cell Sorting (FACS). These cells were then stably transfected with PfHT, human GLUT1 (hGLUT1), human GLUT2 (hGLUT2), human GLUT3 (hGLUT3) or human GLUT4 (hGLUT4) DNA in the pcDNA 3.1(−) hygro plasmid (Life Technologies). Single clones were selected by comparing their ability to transport radiolabeled glucose. In all cell lines except for HEK293 overexpressing hGLUT1 cells, native hGLUT1 was knocked down using shRNA.
96-well plates were pretreated with 25 μg/ml Polyethylenimine (PEI, 750 kDa, Sigma Aldrich) solution containing 150 mM NaCl to maintain cell adhesion during washing steps. After 20 min incubation at room temperature (RT), PEI was aspirated and wells were air dried for 5 min. PfHT-FLIP cells were plated 48 h prior to the assay in black opaque 96-well plates (Greiner Bio-One, Monroe, N.C.), which were previously treated with PEI, at 30,000 cells/well. After cell plating, plates were then left in the sterile hood at RT for 45 min before transfer to the incubator to reduce edge effects. Compound screening was performed using the integrated and automated screening system (Beckman Coulter, Brea, Calif.) at the Washington University High Throughput Screening Core. SAMI EX software (Beckman Coulter) was used to design and execute the screening protocol. The Malaria Box (Medicines for Malaria Venture, Geneva, Switzerland) compound library was prediluted in glucose-free HEPES buffered saline solution (HBSS) (146 mM NaCl, 4.7 mM KCl, 0.6 mM MgSO4, 1.6 mM NaHCO3, 0.13 mM NaH2PO4, 2.5 mM CaCl2, 20 mM HEPES, pH 7.3) using the BiomekFX liquid handler (Beckman Coulter). A 1:100 dilution of 1 mM stock solution was prepared for 10 μM final concentration.
To initiate the screening assay, cells were washed twice with 150 μl HBSS per well using the ELx405 Plate Washer (Biotek, Winooski, Vt.). Cells were starved in HBSS for 30 min at RT, followed by aspiration of the HBSS from cell plates using the ELx405 Plate Washer. Cells were treated with 45 μl of diluted compound using the BiomekFX (with 3 replicate cell plates for each library plate) and incubated for 6 min at RT. To initiate the uptake, 5 μl of 100 mM glucose was added to the wells (final concentration 10 mM) using a Multidrop384 dispenser (Thermo Fisher Scientific, Waltham, Mass.). After incubation at RT for 120 min, fluorescence was measured using the 2102 EnVision Multilabel Plate Reader (Perkin Elmer, Waltham, Mass.) at excitation 436 nm (CFP) and emissions 485 nm (CFP) and 535 nm (YFP).
The Malaria Box was screened at 10 μM drug concentrations in triplicate and selected hits that decreased the FRET ratio by more than 30% with vehicle-treated cells set to 100% and cells treated with 200 μM CB set to 0%. Since fluorescent compounds have the potential to generate false positive hits, the FRET ratio of compounds without cells present was determined. After false positive elimination, 5 compounds were identified as primary hits. Hit confirmation was ascertained by determining the IC50 for glucose uptake into isolated P. falciparum parasites from blood culture using radiolabeled D-glucose. […] Compound MMV020548 was included for comparison as it was previously identified from the same library. The similar IC50 observed in the freed parasite glucose uptake assay and in vitro growth inhibition assay for MMV009085, was consistent with the interpretation that this compound is acting through PfHT blockage to inhibit parasite growth (Table 3) although, alternative targets in the parasite might be inhibited as well.

Test [2] has as its target T1, PfHT. The test is described as follows: Uptake of [14C]-2-DOG into isolated (freed) P. falciparum parasites. Type of test: cell-based. The protocol: P. falciparum strain 3D7 was cultured in 100 mm tissue culture dishes (Techno Plastic Products, Trasadingen Switzerland) in a 2% suspension of human erythrocytes and RPMI 1640 medium until reaching >5% parasitemia. Cells were pelleted via centrifugation and resuspended in RPMI. To determine the uptake of radiolabeled glucose into the parasite, it was isolated from the erythrocyte while removing uninfected erythrocytes. Uptake of [^14C]-2-DOG into isolated parasites was determined at RT using the methods described previously(19). Test compounds were added 5 min prior to the addition of [^14C]-2-DOG (0.2 μCi/ml final concentration). Uptake was quenched after 2 min Data were fit by nonlinear regression analysis using GraphPad Prism software. Uptake of [^3H]-2-DOG into HEK293-FLIP cell lines was measured in HEPES-buffered saline at RT for 4 min Data were fit by nonlinear regression analysis using GraphPad Prism software.

Test [3] relates to P. falciparum strain 3D7. As to the kind of experiment: P. falciparum growth inhibition assay (PicoGreen DNA content). To be noted: Plasmodium falciparum; for EC50: intraerythrocytic forms, strain 3D7. Type of test: cell-based. The protocol: P. falciparum strain 3D7 was obtained from the Malaria Research and Reference Reagent Resource Center (MR4). P. falciparum parasites were cultured in a 2% suspension of human erythrocytes and RPMI 1640 (Sigma Aldrich) medium supplemented with 27 mM sodium bicarbonate, 11 mM glucose, 5 mM HEPES, 1 mM sodium pyruvate, 0.37 mM hypoxanthine, 0.01 mM thymidine, 10 μg/ml gentamicin, and 0.5% Albumax (Gibco, Waltham, Mass.) at 37° C., 5% O2/5% CO2/90% N2 atmosphere.
Asynchronous P. falciparum cultures were diluted to 1% parasitemia and were treated with compounds at concentrations ranging from 9.8 nM-20 μM. Growth inhibition assays were performed in 100 μl cultures in opaque 96-well plates. Parasite growth was quantified after 3 days by measuring DNA content using PicoGreen (Life Technologies). Fluorescence was measured by a FLUOstar Omega microplate reader (BMG Labtech, Cary, N.C.) at 485 nm excitation and 528 nm emission. IC50 values were calculated by nonlinear regression analysis using GraphPad Prism software.

Test [4] concerns P. falciparum. The settings on record: values provided with the malaria box; read-out: EC50 for P. falciparum growth inhibition Malaria box; cited from earlier work.
Test [5] deals with T1, PfHT. As to the kind of experiment: Glucose uptake into PfHT overexpressing L. mexicana parasites (Ortiz et al.). Type of test: cell-based.
Test [6] has as its system hGLUTs 1-4. As to the kind of experiment: Uptake of [3H]-2-DOG by HEK293 cells overexpressing PfHT or hGLUTs 1-4. Type of test: cell-based, human.
Procedure: To establish selectivity of these hits for PfHT over human orthologues, the inhibition of GLUTs 1, 2, 3 and 4 was cross-validated by the confirmed hits. […] The inhibitory effect of the five confirmed hits was determined on all four human class I GLUTs at the IC50 concentration for PfHT-mediated glucose uptake inhibition.
Test [7] concerns the target T1, PfHT. To be noted: cited from earlier work.
In test [8] the test system is parasites. The settings on record: cited from earlier work.
The test system of test [9] is human insulin-responsive glucose transporter GLUT4. The settings on record: cited from earlier work.
The mark [10] stands for this setting: IC50 PfHT in parasites, Table 1.
Setting [11] is: IC50 for glucose uptake in freed parasites, from dose-response curves of FIG. 4.
The mark [12] stands for this setting: 72 h, P. falciparum strain 3D7, growth after 3 days, read-out: IC50 3D7 in vitro.
[13] abbreviates: PfHT overexpressing L. mexicana, read-out: IC50 PfHT (determined by Ortiz et al. (15) in L. mexicana).

Where two headings read alike, the source gives them in different places.

Take `C=C1[C@@H](C)[C@H]2[C@H](Cc3ccccc3)NC(=O)[C@]23OC(=O)/C=C/[C@H](O)CCC[C@@H](C)C/C=C/[C@H]3[C@@H]1O` [CB, cytochalasin B, reference compound]: the “maximal decrease in FRET ratio” value in [1] (50 μM, PfHT-FLIP cells) amounted to 75%. Besides, the “inhibition of D-glucose uptake” value in test [1] (200 μM, PfHT-FLIP cells) is recorded as “complete inhibition”.
In the case of `Cc1ccc2nc(C)cc(Nc3cccc(C(F)(F)F)c3)c2c1` [MMV000326], in test [1], the inhibition at 10 µM amounted to 49%. In addition, the IC50 in test [2] (setting [10]) stood at 139000 nM; in test [2] (setting [11]), 286000 nM; in [3] (setting [12]) it was 344 nM. In addition, the results for the EC50 in test [3] and in test [4] were 344 nM and 1170 nM, respectively.
Consider `O=C1c2ccc3c4c(ccc(c24)C(=O)N1CCCCO)C(=O)N(CCCCO)C3=O` [MMV009085], for which the inhibition at 10 µM in test [1] turned out to be 87%. The IC50 in [2] (setting [10]) is 1800 nM; in [2] (IC50 for PfHT-mediated glucose uptake) it was 2600 nM; in test [3] (3D7, read-out: IC50 malaria parasite growth assay), 990 nM; in test [3] (setting [12]), 987 nM; in test [7] (read-out: IC50 L. mexicana PfHT overexpression assay) it was 51 nM. For the same compound, the EC50 was 987 nM in [3] and 795 nM in test [4]. In addition, the “difference in potency by the two assays (parasite growth vs L. mexicana PfHT overexpression)” value in test [5] is recorded as 20 fold. The “selectivity for PfHT over human orthologues (IC50s for glucose uptake inhibition)” value in test [6] is reported as “more than 10 fold”. Moreover, in test [7], the “glucose uptake versus proline transport in PfHT-overexpressing Leishmania mexicana” value (“glucose uptake versus proline transport” for short) was “selectively inhibit glucose uptake, but not proline transport”.
As to `CCN1CCN(Cc2ccc(NC(=O)c3cc4ccc5cccnc5c4[nH]3)cc2)CC1` [MMV020548], the inhibition at 10 µM in test [1] came out at 21%. The IC50 is 21300 nM in test [2] (setting [10]), 15500 nM in [2] (setting [11]), 114 nM in test [3] (setting [12]) and 3500 nM in test [7] (setting [13]). Further, the values for the EC50 in [3] and in [4] were 114 nM and 361 nM, respectively. Also, the “glucose uptake versus proline transport” value in [7] is recorded as “selectively inhibit glucose uptake, but not proline transport”.
Take `CC(C)(C)C(=O)Nc1ccc(C(=O)Nc2cccc(-c3nc4ccccc4[nH]3)c2)cc1` [MMV665879]: the inhibition at 10 µM in test [1] came to 49%. Besides, the IC50 in test [2] (setting [10]) is 6600 nM; in [2] (setting [11]) it was 8300 nM; in test [3] (setting [12]), 390 nM; in test [7] (setting [13]), 2700 nM. In test [3], this compound gave an EC50 of 390 nM. For the same compound, the “glucose uptake versus proline transport” value in [7] was “selectively inhibit glucose uptake, but not proline transport”.
Consider `COc1cc(C(=O)Nc2ccc(-c3nc4ccccc4[nH]3)cc2)cc(OC)c1OC` [MMV665898], for which the inhibition at 10 µM in [1] stood at 64%. The IC50 in test [2] (setting [10]) worked out at 6200 nM; in [2] (setting [11]), 5300 nM; in [3] (setting [12]), 487 nM. Moreover, the EC50 in [3] is 487 nM; in test [4], 1220 nM.
Regarding `CN(C)c1ccc(C(O)(c2ccc(N(C)C)cc2)c2ccc(N(C)C)cc2)cc1` [MMV665941], the inhibition at 10 µM in test [1] was 31%. Besides, the “inhibition of glucose uptake at the highest concentration tested” value in test [2] (FIG. 4) is reported as “only partial inhibition”. Moreover, the figures for the IC50 in test [2] (setting [10]), in test [2] (setting [11]) and in test [3] (setting [12]) were 13300 nM, 19600 nM and 26 nM, respectively. For the same compound, the EC50 is 26 nM in [3] and 255 nM in test [4].
In the case of `Cc1cccc(C)c1OCC(=O)N[C@@H](Cc1ccccc1)[C@@H](O)C[C@H](Cc1ccccc1)NC(=O)[C@H](C(C)C)N1CCCNC1=O` [lopinavir], in test [1] (PfHT-FLIP cells, FIG. 2a), the “FRET ratio with addition of D-glucose” value is “decreased FRET ratio”. In addition, the IC50 in test [8] is 16000 nM. Also, in [9], the “selectivity GLUT4 over PfHT” value is given as “higher selectivity for the human insulin-responsive glucose transporter GLUT4 over PfHT”.

One may read the inhibition as how much of the control response was suppressed. Usually IC50 stands for the point on the concentration scale where inhibition reaches its midpoint. What is called EC50 is the concentration needed to bring the measured effect to its halfway point.
